Read-outs that look alike come from different tables or passages of the source.
Columns and labels:
physchem [1] = conditions: c18 hplc, methanol/water; for K' (retention factor): pH 5.7
Source text: (§1) The [α]D, pKa, the retention factor and the critical micellar concentrations (CMC), important because related to the capacity to form micelles in the bile and function of the hydrophilic/lipophilic balance, have been determined on the A, B, C, D isomers of 22,23-methanate-ursodeoxycholic acid. The CMCs have been measured by the method of the solubilization of insoluble dyes such as Azulene and Orange OT (Roda et al., J. Biol. Chem., in press).
**K' = Retention factor. It has been calculated from the retention times
on HPLC using as stationary phase a C18 column and as mobile phase a
mixture of methanol/H2 O 130/70; pH 5.7.

[2] = type: physicochemical
Source text: as §1

physchem [3] = test: physchem
Source text: as §1
*Determined by potentiometric titration.

[4] = Hepatic uptake in isolated rat livers (method of Mortimore); type: in vitro ADME; conditions: isolated perfused liver, mean ± SD of five determinations
[5] = molecular target: human serum albumina (HSP) (Homo sapiens, UniProt P02768); test: Interaction with human serum albumin (albumin affinity constant)
bile lipid secretion = test: Bile flow and bile lipid secretion in anaesthetized rats; type: in vivo, Sprague-Dawley rats; conditions: 50 mg i.v., bile collected for 5 h; for Bile flow: controls 0.55 ± 0.12, *** p < 0.01 vs. controls; for Cholesterol secretion: controls 1.66 ± 0.12, *** p < 0.01 vs. controls; for Phospholipid secretion: controls 6.92 ± 0.44, *** p < 0.01 vs. controls (CUDCA); for BA (bile acids) secretion: controls 61 ± 8
Source text: *The control values were obtained on five rats studied under similar
conditions to the BA treated rats. Each value represents the mean plus or
minus the SD of five determinations.

human serum albumina (HSP), sequence (P02768 25-609): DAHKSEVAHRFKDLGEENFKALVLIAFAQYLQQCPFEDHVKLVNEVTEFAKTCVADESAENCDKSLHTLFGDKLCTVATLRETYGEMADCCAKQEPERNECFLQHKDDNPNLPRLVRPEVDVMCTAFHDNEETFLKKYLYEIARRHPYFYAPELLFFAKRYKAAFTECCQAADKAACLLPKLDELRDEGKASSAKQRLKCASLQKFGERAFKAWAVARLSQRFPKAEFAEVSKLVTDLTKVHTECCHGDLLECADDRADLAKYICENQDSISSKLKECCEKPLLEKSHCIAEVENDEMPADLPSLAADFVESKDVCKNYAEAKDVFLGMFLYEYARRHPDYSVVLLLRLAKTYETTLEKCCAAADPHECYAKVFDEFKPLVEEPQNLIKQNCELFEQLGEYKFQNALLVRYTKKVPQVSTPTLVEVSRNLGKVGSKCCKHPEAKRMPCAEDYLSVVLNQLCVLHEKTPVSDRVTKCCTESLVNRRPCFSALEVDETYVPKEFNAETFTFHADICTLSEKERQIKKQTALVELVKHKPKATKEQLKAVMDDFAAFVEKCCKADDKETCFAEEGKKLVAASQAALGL

Compound: C[C@H](C1CC1C(=O)O)[C@H]1CC[C@H]2[C@@H]3[C@@H](O)C[C@@H]4C[C@H](O)CC[C@]4(C)[C@H]3CC[C@]12C (single isomer, unassigned) [Isom. C, 22,23-methanate-ursodeoxycholic acid]
- K' (retention factor) (physchem [1]): 1.30
- CMC (H2O) [2]: 14 mM
- CMC (Na^+ 0.15 M) [2]: 8 mM
- pKa (physchem [3]): 5.02

Compound: C[C@H](C1CC1C(=O)O)[C@H]1CC[C@H]2[C@@H]3[C@@H](O)C[C@@H]4C[C@H](O)CC[C@]4(C)[C@H]3CC[C@]12C (stereo partly drawn) [CUDCA, 3α, 7β-dihydroxy-22,23-methylene-5β-cholan-24-oic acid]
- hepatic extraction ratio [4]: 0.46 ± 0.01
- Kd [5]: 14.7 µM
- Bile flow (bile lipid secretion): 1.68 ± 0.20 mL/h
- Cholesterol secretion (bile lipid secretion): 2.70 ± 0.14 µmol/kg/h
- Phospholipid secretion (bile lipid secretion): 9.50 ± 0.44 ^.parallel.mol kg^-1 h^-
- BA (bile acids) secretion (bile lipid secretion): 97 ± 9 µmol/kg/h

Compound: C[C@H](C1CC1C(=O)O)[C@H]1CC[C@H]2[C@@H]3[C@@H](O)C[C@@H]4C[C@H](O)CC[C@]4(C)[C@H]3CC[C@]12C (single isomer, unassigned) [Isom. B, 22,23-methanate-ursodeoxycholic acid]
- K' (retention factor) (physchem [1]): 0.80
- CMC (H2O) [2]: 20 mM
- CMC (Na^+ 0.15 M) [2]: 12 mM
- pKa (physchem [3]): 5.06

Compound: C[C@H](C1CC1C(=O)O)[C@H]1CC[C@H]2[C@@H]3[C@@H](O)C[C@@H]4C[C@H](O)CC[C@]4(C)[C@H]3CC[C@]12C (single isomer, unassigned) [Isom. A, 22,23-methanate-ursodeoxycholic acid]
- K' (retention factor) (physchem [1]): 0.21
- CMC (H2O) [2]: 25 mM
- CMC (Na^+ 0.15 M) [2]: 16 mM
- pKa (physchem [3]; pKa): 5.03

Compound: C[C@H](CCC(=O)O)[C@H]1CC[C@H]2[C@@H]3[C@@H](O)C[C@H]4C[C@H](O)CC[C@]4(C)[C@H]3CC[C@]12C [UDCA, 3α, 7β-dihydroxy-5α-cholan-24-oic acid, reference compound]
- chromatographic logD (physchem [1]; pH 5.7, K' (retention factor)): -0.0223
- CMC (H2O) [2]: 19 mM
- CMC (Na^+ 0.15 M) [2]: 11 mM
- Bile flow (bile lipid secretion): 1.08 ± 0.15 mL/h
- Cholesterol secretion (bile lipid secretion): 2.12 ± 0.09 µmol/kg/h
- Phospholipid secretion (bile lipid secretion): 6.47 ± 0.54 ^.parallel.mol kg^-1 h^-
- BA (bile acids) secretion (bile lipid secretion): 98 ± 7 µmol/kg/h
- pKa (physchem [3]; pKa): 5.06

Compound: C[C@H](C1CC1C(=O)O)[C@H]1CC[C@H]2[C@@H]3[C@@H](O)C[C@@H]4C[C@H](O)CC[C@]4(C)[C@H]3CC[C@]12C (single isomer, unassigned) [Isom. D, 22,23-methanate-ursodeoxycholic acid]
- K' (retention factor) (physchem [1]): 2.05
- CMC (H2O) [2]: 10 mM
- CMC (Na^+ 0.15 M) [2]: 6 mM
- pKa (physchem [3]): 5.04

From US4565810A, “Derivatives of biliary acids, process for the production thereof and pharmaceutical compositions containing the same” (Lehner A.G., priority 1983, dated 1986)
